Laboratory results published in a compilation of properties of binary mixtures (doi:10.1039/c7cp05886a).

Experiment: xn = mol fraction of the nth substance listed
Details: 298.15 K, 100 kPa

CCCCCCCC[N+]1(C)CCCC1.O=S(=O)([N-]S(=O)(=O)C(F)(F)F)C(F)(F)F + CCCCOC(C)=O
Details	electrical conductivity [S/m]	viscosity [mPa·s]
x2 = 0	0.082	138.2
x2 = 0.481	0.256	–
x2 = 0.4969	–	17.37
x2 = 0.6954	–	7.1
x2 = 0.7372	0.361	–
x2 = 0.7499	–	5.07
x2 = 0.8031	–	3.42
x2 = 0.8484	–	2.5
x2 = 0.8928	0.242	–
x2 = 0.9016	–	1.732
x2 = 0.9431	–	1.202
x2 = 0.9456	0.131	–

CCCCCCCC[n+]1ccccc1.O=S(=O)([N-]S(=O)(=O)C(F)(F)F)C(F)(F)F + CCCCOC(C)=O
Details	electrical conductivity [S/m]	viscosity [mPa·s]
x2 = 0	0.097	104.1
x2 = 0.2414	0.166	–
x2 = 0.2556	–	49.6
x2 = 0.481	0.271	–
x2 = 0.501	–	18.43
x2 = 0.6984	–	6.82
x2 = 0.7372	0.384	–
x2 = 0.7522	–	4.87
x2 = 0.7923	0.377	–
x2 = 0.7996	–	3.57
x2 = 0.8427	0.333	–
x2 = 0.8487	–	2.47
x2 = 0.8928	0.258	–
x2 = 0.8996	–	1.732
x2 = 0.9456	0.124	–
x2 = 0.9493	–	1.227

CCCCCCCCn1cc[n+](C)c1.O=S(=O)([N-]S(=O)(=O)C(F)(F)F)C(F)(F)F + CCCCOC(C)=O
Details	electrical conductivity [S/m]	viscosity [mPa·s]
x2 = 0.2622	–	44.2
x2 = 0.481	0.307	–
x2 = 0.5001	–	17.1
x2 = 0.6824	0.407	–
x2 = 0.7372	0.414	–
x2 = 0.7503	–	4.99
x2 = 0.7923	0.406	–
x2 = 0.797	–	3.47
x2 = 0.8503	–	2.53
x2 = 0.8928	0.279	–
x2 = 0.8976	–	1.73
x2 = 0.9305	–	1.308
x2 = 0.9456	0.19	–

CCCCOC(C)=O + CCCC[n+]1ccn(C)c1.O=S(=O)([N-]S(=O)(=O)C(F)(F)F)C(F)(F)F
Details	electrical conductivity [S/m]	viscosity [mPa·s]
x1 = 0.2414	0.529	26
x1 = 0.481	0.67	11.88
x1 = 0.6824	0.725	4.9
x1 = 0.7372	0.704	3.42
x1 = 0.7923	0.654	2.65
x1 = 0.8427	0.535	2.043
